Data reported in patent US20070202165A1, “Method for a supplemental dietary composition having a multi-phase dissolution profile” (priority 2006, published 2007).
Entries after “also recorded” stand apart in the source; their conditions may differ.

How the values were obtained:
Format in all cases: physicochemical
[1] = Solubility test with filtration: amount dissolved until saturated and dry powder remaining on filter paper; conditions: gravity filtration, filter paper dried
Experimental: A second experiment relating to fine-milling and potential increase in bioavailability was conducted. In order to test the capacity of fine-milling to improve the rate bioavailability of substances, a simple test was performed. The test was conceived to mimic various elements involved in the processes of oral administration of a nutritional supplement. The key parameters involved were rate of dissolution and solubility, as it is understood that an ingested nutrient must be dissolved or reduced to a bio-transportable size in order to be utilized biochemically by the body.
The rates of dissolution and solubility of regular common nutritional supplements were compared to fine-milled versions within a fixed time.
100 mL of water was added to a 250 mL beaker and a magnetic stirring bar was placed in the beaker. The beaker was placed on a magnetic stirrer and stirred with low speed. 1 g of a given supplemental dietary ingredient powder was added incrementally to the beaker with the stirring speed constant until the solution visually appeared saturated. […]
The ‘Fold Change’ represents the change in the amount of substance unable to pass through the filter as calculated by the amount of unfiltered regular substance divided by the amount of unfiltered fine-milled substance and represents the potential theoretical improvement in bioavailability.

[2] = Kinetic dissolution experiment: samples filtered at 1 and 5 minutes; conditions: for weight of unfiltered sample: 1 g in 50 mL water, Whateman 41 filter
Experimental: In order to expand on the results of the aforenoted experiments, a kinetic experiment was conducted to examine the change in the dissolution rate over short time periods.
1 g of sample was added to 50 mL water in a flask with a magnetic stir bar on a stirrer set at constant speed. Separate samples were filtered at 1 and 5 minutes. The pre-weighed filter papers (Whateman 41, particle retention 20-25 μm) were allowed to dry and the amount of sample remaining on the filter paper was determined.

[3] = Time to dissolve in water, estimated by visual inspection, regular vs fine-milled ingredients; conditions: for Time taken to dissolve: 100 mL water, magnetic stirring
Experimental: In order to determine the effect of fine-milling on the dissolution rate, initial testing was performed to examine the rate of dissolution of common supplemental dietary ingredients. For the purposes of this disclosure, the term “regular” as used herein makes reference to non-fine-milled particles. 100 mL of water was placed into a 250 mL beaker and a magnetic stirrer bar was added to the beaker. The beaker was then placed on a magnetic stirrer was set to constant speed. […] The time required to dissolve was estimated by visual inspection. Equal amounts of the fine-milled ingredients were then added to the water and the time required to dissolve was estimated by visual inspection.

In the case of `CN(CC(=O)O)C(=N)N.O` [Creatine Monohydrate], the “Dry Powder On Filter” value ([1]; Powder type Fine-milled) is reported as 0.01 g, the “Dry Powder On Filter” value ([1]; Powder type Regular) is reported as 0.19 g and the “Time to filter, fine-milled compared with regular samples (in words)” value ([2]; 1- and 5-minute intervals) is reported as “consistently longer for the fine-milled samples”. The “weight of unfiltered sample” value ([2]; Fine-milled, filtered at 1-minute interval, listed as Creatine monohydrate, Monohydrate) was 0.33 g, the “weight of unfiltered sample” value ([2]; Fine-milled, filtered at 1-minute interval, listed as creatine, Monohydrate) was 0.32 g and the “weight of unfiltered sample” value ([2]; Fine-milled, filtered at 5-minute interval) was 0.27 g. The “weight of unfiltered sample” value ([2]; Regular, filtered at 1-minute interval, listed as Creatine monohydrate, Monohydrate) was 0.32 g, the “weight of unfiltered sample” value ([2]; Regular, filtered at 1-minute interval, listed as creatine, Monohydrate) was 0.33 g and the “weight of unfiltered sample” value ([2]; Regular, filtered at 5-minute interval) was 0.40 g. The “Time taken to dissolve” value ([3]; Powder type Fine-milled) was less than 5 min, the “Time taken to dissolve” value ([3]; Powder type Regular (non-fine-milled)) was less than 5 min and the “Dissolution of fine-milled compared with regular ingredient (in words)” value ([3]; fine-milled vs regular, Monohydrate) was “dissolved at the same rate in both the fine-milled and regular formats; also recorded: did not display a difference dependent on particle size”.
